Data as given in patent US20160361398A1, “METHOD FOR THE TREATMENT OF MULTIPLE SCLEROSIS” (Vereniging voor Christelijk Wetenschappe Onderwijs, priority 2015, published 2016).
No end group written: not given here.

Legend:
[1] = tested on: MOG-specific CD4+ T cells; test: qRT-PCR of MOG-specific CD4+ T cells isolated on day 6 of co-culture with pulsed DCs; format: cell-based, mouse; details: for Foxp3 mRNA level (qRT-PCR, normalized to GAPDH): FIG. 1D right panel
Protocol: FIG. 1D: (Left panel) Expression of T-bet, which is a measure for IFN-γ-producing effector CD4 T cells (Th1). (Right panel) Foxp3 mRNA, which is a measure for Treg cells that suppress, were determined using qRT-PCR and subsequently normalized to housekeeping gene GAPDH, which is equal under all conditions.

[2] = tested on: MOG-specific CD4+ (2D2) T-cells; test: IFN-γ in culture supernatants of DC / 2D2 T-cell co-cultures; format: cell-based, mouse; details: 2D2 T cells primed by antigen-loaded DCs; FIG. 1C
Protocol: Antigen-specific nave CD4+CD62LhiCD25− T cells were purified from spleen and LN cell suspensions obtained from 2D2 mice using the Dynal mouse CD4+ CD62L+ T cell isolation kit II mouse (Miltenyi Biotec, Bergisch Gladbach, Germany) or by sorting on a MoFlo (DakoCytomation, Glostrup, Denmark). The resulting naïve CD4+ CD62L+CD25− T cell populations were typically 95% pure as assessed by flow cytometry. Naïve CD4+ T cells (5×10^4) were added to wells containing DCs (1×10^4) that were pulsed with indicated concentrations of antigen modified with a sialylated oligosaccharide or native antigen 3 hours prior. After 2 days, 10 U/ml recombinant mouse IL-2 (Invitrogen, Bleijswijk, The Netherlands) was added. T-cell polarization was evaluated on day 6 by intra-cellular staining for Foxp3 and IFN-γ following 5 hours restimulation with phorbol 12-myristate 13-acetate (PMA; 30 μg/ml)/ionomycin (Sigma; 500 ng/ml) in the presence of Brefeldin A (Sigma; 5 μg/ml). […]
(§1) Cytokine production by T cells and DCs was assessed by cytometric bead arrays using the CBA Th1/2/17 kit and mouse inflammation kit, respectively (BD Biosciences), or by ELISA using specific antibody pairs (eBiosciences) following the manufacturers' instructions.

[3] = tested on: MOG-specific effector CD4 T cells from EAE splenocytes; test: EAE splenocytes re-stimulated ex vivo with antigen-loaded DCs: [3H]thymidine incorporation; format: cell-based, mouse; details: after 4 days of culture; EAE scores 1, 2 and 3; FIG. 1F
Protocol: To examine this even further, testing was performed to determine whether DCs exposed to α-2,6-Sia-MOG35-55 were able to inhibit MOG-specific effector T cells that were obtained from splenocytes from mice suffering from experimental autoimmune encephalomyelitis (EAE). To this effect, CD4 effector T cells were harvested from splenocytes of mice at various EAE clinical scores, representing different stages of effector T cell number and activity, wherein score 1 is the onset of disease and score 2 and 3 are the more severe phases of the disease.
Testing was performed to determine whether DCs ex vivo loaded with Sia-MOG could inhibit the proliferation of the MOG-specific effector CD4 T cells that were obtained from EAE mice.
DCs loaded with α-2-6-Sia-MOG35-55 or non-sialylated MOG35-55 were cultured with EAE splenocytes and, after 4 days of culture, [3H]thymidine incorporation was determined as a measure of proliferation and division of CD4 T cells (FIG. 1 F).
(§2) Splenocytes from mice that suffered EAE were re-stimulated ex-vivo with DCs loaded with either non-sialylated MOG or α-2-6-Sia-MOG35-55 and as a control, DC with no antigen. DC and T cells were cultured as described in Example 2, as described above, for 4 days. 3H and IFN-γ was determined as described above.

[4] = tested on: Th1 and Th17 cells generated from 2D2 CD4 T cells; test: Inhibition of effector Th1 and Th17 cells generated from 2D2 T cells, re-stimulated with pulsed DCs; format: cell-based, mouse; details: supernatant after 24 hours; for secretion of effector cytokine by Th1 cells (IFN-gamma): FIG. 1E left panel; for secretion of effector cytokine by Th17 cells (IL-17): FIG. 1E right panel
From the text: As stated hereinbefore, Th1 and Th17 are the effector CD4T cells that cause inflammation in MS. […] This was not observed when these effector cells were co-cultured with DCs loaded with non-sialylated MOG 35-55 (FIG. 1E). Thus, it was concluded that T cells generated in the presence of DCs exposed to α-2,6-Sia-MOG35-55, indeed were functional in that they were able to suppress MOG-specific effector T cells and, therefore, able to dampen ongoing inflammation. It follows that the disclosure may be applied for treating ongoing inflammation, such as the inflammation observed in MS patients, when, at the peak of the disease, auto-reactive, myelin-specific CD4^+ and CD8^+ T cells are involved in the demyelination of the neurons.
(§3) Antigen-specific nave CD4+CD62LhiCD25− T cells were purified from spleen and LN cell suspensions obtained from 2D2 mice using the Dynal mouse CD4+ CD62L+ T cell isolation kit II mouse (Miltenyi Biotec, Bergisch Gladbach, Germany) or by sorting on a MoFlo (DakoCytomation, Glostrup, Denmark). The resulting naïve CD4+ CD62L+CD25− T cell populations were typically 95% pure as assessed by flow cytometry. Naïve CD4+ T cells (5×10^4) were added to wells containing DCs (1×10^4) that were pulsed with indicated concentrations of antigen modified with a sialylated oligosaccharide or native antigen 3 hours prior. After 2 days, 10 U/ml recombinant mouse IL-2 (Invitrogen, Bleijswijk, The Netherlands) was added. T-cell polarization was evaluated on day 6 by intra-cellular staining for Foxp3 and IFN-γ following 5 hours restimulation with phorbol 12-myristate 13-acetate (PMA; […])/ionomycin (Sigma; 500 ng/ml) in the presence of Brefeldin A (Sigma; 5 μg/ml). For inhibition of effector Th1 and Th17 cells, Naïve 2D2 T cells were converted in Th1 or Th17 cells by culturing; one week later, effector T cells re-stimulated with DC pulsed with MOG or Sialylated MOG. After 24 hours, the supernatant was harvested for presence of IFN-γ or IL 17 as measure of activity of Th1 and Th17 effector cells, respectively.

[5] = tested on: MOG-responsive CD4+ T cells (2D2 T cells); test: T helper differentiation: antigen-pulsed DCs co-cultured with naive 2D2 CD4+ T cells, intracellular staining for Foxp3 and IFN-γ; format: cell-based, mouse; details: cultured six days with 2D2 T cells; for induction of suppressive Foxp3+CD4+ T cells: FIG. 1A; for CD4+ IFN-γ+ MOG effector T cells: FIG. 1B
From the text: For that purpose, DC were pulsed with α-2-6-Sia-MOG35-55 and a non-sialylated MOG 35-55 peptide as a control, and cultured for six days with MOG-responsive CD4^+ T cells (2D2 T cells (Bettelli et al., J. Exp. Med., 2003).
as §3

[6] = tested on: MOG-reactive effector T cells from EAE mice; test: EAE splenocytes re-stimulated ex vivo with antigen-loaded DCs: IFN-γ production; format: cell-based, mouse; details: 4 days of culture; EAE mice with different scoring; FIG. 1G
Protocol: To determine the functionality of the MOG-reactive effector cells, IFN-γ production was measured (FIG. 1G).
as §2, §1

[7] = tested on: experimental autoimmune encephalomyelitis; details: intravenous administration; cited from earlier work
[8] = tested on: naive OVA-specific CD4+ T cells (OT-II); test: Antigen specificity: loaded DCs challenged with OVA, co-cultured with OT-II cells, Foxp3+ CD4+ by flow cytometry; format: cell-based, mouse; details: for tolerogenic cells (Foxp3+ CD4+ T cells) in a population of OT-II cells: loaded DCs subsequently challenged with OVA
Protocol: (§4) For that purpose, dendritic cells were loaded with sia-OVA and subsequently challenged in the presence of specific CD4+ T cells with either OVA or with a myelin oligodendrocyte glycoprotein peptide (MOG 35-55).
(§5) The thus-loaded dendritic cells were then co-cultured with naive MOG-specific CD4+ T cells (called 2D2) in the presence of MOG 35-55 or with naive OVA-specific CD4+ T cells (called OT-II) in the presence of ovalbumin (OVA).
(§6) Subsequently, it was determined whether sia-OVA-loaded dendritic cells were able to induce tolerogenic T cells in an antigen-specific manner. This was done by determining the percentage of Foxp3+ CD4+ T cells by flow cytometry.

[9] = tested on: naive MOG-specific CD4+ T cells (2D2); test: Antigen specificity: sia-OVA-loaded DCs challenged with MOG 35-55, co-cultured with 2D2 cells, Foxp3+ CD4+ by flow cytometry; format: cell-based, mouse; details: loaded DCs subsequently challenged with MOG 35-55
Protocol: as §4, §5, §6

Substance	Foxp3 mRNA level (qRT-PCR, normalized to GAPDH) [1]	secreted IFN-γ in culture supernatants [2]	proliferation of MOG-specific CD4 T cells ([3H]thymidine incorporation) [3]	secretion of effector cytokine by Th1 cells (IFN-gamma) [4]	secretion of effector cytokine by Th17 cells (IL-17) [4]	induction of suppressive Foxp3+CD4+ T cells [5]	CD4+ IFN-γ+ MOG effector T cells [5] [%]	IFN-γ production of MOG-reactive effector cells [6]	tolerogenic cells (Foxp3+ CD4+ T cells) in a population of OT-II cells [8]	other results
MEVGWYRPPFSRVVHLYRNGK [non-sialylated MOG35-55, reference compound]	hardly expressed	significant amounts	stimulate the proliferation	not observed	not observed	not induced	3.5	enhance		T-bet mRNA level (qRT-PCR, normalized to GAPDH) ([1]; FIG. 1D left panel): higher mRNA levels; effect on experimental autoimmune encephalomyelitis [7]: suppresses
OVA: ovalbumin, control antigen [reference compound]									did not induce tolerogenic cells above background levels	
sia-OVA: sia-2,3 and 2,6-conjugated ovalbumin									about 10%	tolerogenic cells (Foxp3+ CD4+ T cells) in a population of 2D2 cells [9]: did not induce tolerogenic cells above background levels
α-2-6-Sia-MOG35-55: MOG 35-55 peptide with N-terminal cysteine covalently attached via MPBH linker to 6′-sialyl-N-acetyllactosamine (Neu5Ac(α)2-6Gal(β)1-4GlcNAc) (GPGYPIRALVGDEAELPCRIS; not fully specified (N-terminus); also: N-terminal Cys linked via MPBH to 6'-sialyl-LacNAc (Neu5Ac(α)2-6Gal(β)1-4GlcNAc); UniProt Q61885 35-55, looked up, fragment)	high levels	reduction	clear reduction of proliferation	significantly reduced	significantly reduced	majority of the CD4 T cells co-express Foxp3	0.3	suppressed		
α-2-6-Sia-OVA: OVA coupled to 6′-Sialyl-N-acetyllactosamine (6′-SLN)										immune tolerance against OVA ([8]; DCs exposed to the antigen): capable of inducing immune tolerance against OVA
